Reference: PubChem BioAssay AID1963873 (Molecular Pharmacology Branch, DTP, NCI, 2024)

Test system: 276233-004-R-J1-PDC KRAS spheroids with HUVEC/MSC, viability
Assay: Anticancer human tumor 276233-004-R-J1-PDC patient-derived colon adenocarcinoma cell line growth inhibition [KRAS2]
Conditions: for IC50: curve of first compound; for viability, T/C: stronger effect = lower value
Summary of the method: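 KRAS-mutant tumor cells were grown as spheroids with HUVEC endothelial cells and human MSCs as stroma. Targeted agents were tested alone and with KRAS pathway inhibitors. Doses started at or near clinical Cmax, or 10 microM, descending half-log.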

[1] = second compound 0.1 µM, first compound 0.0316 µM
[2] = second compound 0.1 µM, first compound 0.1 µM
[3] = second compound 0.1 µM, first compound 0.316 µM
[4] = second compound 0.1 µM, first compound 1 µM
[5] = second compound 0.1 µM, first compound 3.16 µM
[6] = second compound 0.316 µM, first compound 0.0316 µM
[7] = second compound 0.316 µM, first compound 0.1 µM
[8] = second compound 0.316 µM, first compound 0.316 µM
[9] = second compound 0.316 µM, first compound 1 µM
[10] = second compound 0.316 µM, first compound 3.16 µM
[11] = second compound 1 µM, first compound 0.0316 µM
[12] = second compound 1 µM, first compound 0.1 µM
[13] = second compound 1 µM, first compound 0.316 µM
[14] = second compound 1 µM, first compound 1 µM
[15] = second compound 1 µM, first compound 3.16 µM
[16] = second compound 3.16 µM, first compound 0.0316 µM
[17] = second compound 3.16 µM, first compound 0.1 µM
[18] = second compound 3.16 µM, first compound 0.316 µM
[19] = second compound 3.16 µM, first compound 1 µM
[20] = second compound 3.16 µM, first compound 3.16 µM
[21] = second compound 10 µM, first compound 0.0316 µM
[22] = second compound 10 µM, first compound 0.1 µM
[23] = second compound 10 µM, first compound 0.316 µM
[24] = second compound 10 µM, first compound 1 µM
[25] = second compound 10 µM, first compound 3.16 µM
[26] = second compound 0.1 µM, first compound 10 µM
[27] = second compound 0.316 µM, first compound 10 µM
[28] = second compound 1 µM, first compound 10 µM
[29] = second compound 3.16 µM, first compound 10 µM
[30] = second compound 10 µM, first compound 10 µM
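Also: cells exposed to agents for seven days before viability read.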
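For viability, T/C in this document: 100% = DMSO vehicle control wells and lower values mean fewer viable cells.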

Row | Structure (SMILES) | IC50 (second compound 0.1 µM) | IC50 (second compound 0.316 µM) | IC50 (second compound 1 µM) | IC50 (second compound 3.16 µM) | IC50 (second compound 10 µM) | viability, T/C [1] | viability, T/C [2] | viability, T/C [3] | viability, T/C [4] | viability, T/C [5] | viability, T/C [6] | viability, T/C [7] | viability, T/C [8] | viability, T/C [9] | viability, T/C [10] | viability, T/C [11] | viability, T/C [12] | viability, T/C [13] | viability, T/C [14] | viability, T/C [15] | further results
1 | CC1COCCN1c1cc(-c2ccnn2C)c2ccnc(-c3ccn[nH]3)c2n1 (stereo not given) + COc1cc2nc(C)nc(NC(C)c3cc(N)cc(C(F)(F)F)c3)c2cc1OC1CCOC1 | 1470 nM | 706 nM | 1860 nM | 474 nM | < 10 nM | 90.3% | 75.8% | 71.4% | 54.5% | 40.6% | 86.1% | 74.2% | 58.9% | 42.6% | 48.6% | 82% | 76.9% | 64.8% | 53.6% | 46.3% | viability, T/C (second compound 0.1 µM, first compound 0.01 µM): 81.3%; viability, T/C (second compound 0.316 µM, first compound 0.01 µM): 80%; viability, T/C (second compound 1 µM, first compound 0.01 µM): 94.5%; viability, T/C (second compound 3.16 µM, first compound 0.01 µM): 80.6%; viability, T/C [16]: 82.6%; viability, T/C [17]: 70%; viability, T/C [18]: 55.8%; viability, T/C [19]: 37.5%; viability, T/C [20]: 48.4%; viability, T/C (second compound 10 µM, first compound 0.01 µM): 37.4%; viability, T/C [21]: 46.5%; viability, T/C [22]: 45.8%; viability, T/C [23]: 34.1%; viability, T/C [24]: 36.9%; viability, T/C [25]: 24.8%
2 | CC1OCC2(CCN(c3cnc(Sc4ccnc(N)c4Cl)c(N)n3)CC2)C1N (stereo not given) + COc1cc2nc(C)nc(NC(C)c3cc(N)cc(C(F)(F)F)c3)c2cc1OC1CCOC1 | > 10000 nM | > 10000 nM | > 10000 nM | 5250 nM | 41.1 nM | 93.6% | 100% | 70.5% | 78% | 62.9% | 109% | 79% | 78.5% | 62.7% | 61.8% | 91.5% | 86.9% | 81.4% | 80.4% | 55.1% | viability, T/C [26]: 51.7%; viability, T/C [27]: 57.2%; viability, T/C [28]: 50.8%; viability, T/C [16]: 85.8%; viability, T/C [17]: 77.8%; viability, T/C [18]: 71.8%; viability, T/C [19]: 70%; viability, T/C [20]: 54%; viability, T/C [29]: 42.7%; viability, T/C [21]: 52.4%; viability, T/C [22]: 44.1%; viability, T/C [23]: 34.4%; viability, T/C [24]: 33.9%; viability, T/C [25]: 24.2%; viability, T/C [30]: 18.7%
3 | Cn1nccc1Nc1nccc(-c2cc3c(s2)C(C)(C)N(CCN2CCOCC2)C3=O)n1 + COc1cc2nc(C)nc(NC(C)c3cc(N)cc(C(F)(F)F)c3)c2cc1OC1CCOC1 | 1720 nM | 2010 nM | 1850 nM | 2720 nM | < 31.6 nM | 87.1% | 97.3% | 76.2% | 59.4% | 40.8% | 89.2% | 91.4% | 79.3% | 60% | 42.9% | 99.7% | 96% | 75.5% | 60.5% | 35.9% | viability, T/C [26]: 33.8%; viability, T/C [27]: 41%; viability, T/C [28]: 48.4%; viability, T/C [16]: 107%; viability, T/C [17]: 74%; viability, T/C [18]: 77.9%; viability, T/C [19]: 56.1%; viability, T/C [20]: 42.4%; viability, T/C [29]: 47.2%; viability, T/C [21]: 39.3%; viability, T/C [22]: 41.3%; viability, T/C [23]: 34.7%; viability, T/C [24]: 27.6%; viability, T/C [25]: 15.2%; viability, T/C [30]: 4.25%
